According to patent US7737143B2, “Substituted pyrazines as kinase inhibitors” (YM Biosciences Australia Pty Ltd, priority 2003, dated 2010):

How the values were obtained:
Type in all cases: biochemical
human JAK3 = molecular target: T1, human JAK3 (Homo sapiens, UniProt P52333); assay: JAK kinase assay (ELISA or Alphascreen), Jak3; conditions: standard conditions, read-out: Jak3 inhibition of enzyme activity
T1 construct: The kinase domain of human JAK3 was amplified from U937mRNA; His tag (pFastBac HTb vector; nickel chelate purification) (N); made in house; host or cells: baculovirus; Sf9 for virus, High Five insect cells for production
Source text: The kinase domain of human JAK3 was amplified from U937mRNA using the polymerase chain reaction with the following primers: […]
JAK3 PCR products were cloned into the pFastBac HTb expression vector (Gibco) via the Xho I and Kpn I sites. The JAK3 plasmid was then transformed into competent DH10Bac cells (Gibco), and the recombinant baculovirus produced prepared for transfection into Sf9 insect cells.
(§1) Baculovirus preparations from each of the JAK family members were infected into five litres of High Five cells (Invitrogen) grown in High Five serum free medium (Invitrogen) to a cell density of approximately 1-2×10^6 cells/ml. Cells are infected with virus at a MOI of 0.8-3.0. Cells were harvested and lysed. JAK kinase domains were purified by affinity chromatography on a Probond (Invitrogen) nickel chelate affinity column.
(§2) Kinase assays were performed either in a 96 well capture-based ELISA assay or in 384 well Optiplates (Packard) using an Alphascreen Protein Tyrosine Kinase kit. In either case using approximately 15 μg of affinity purified PTK domain in the presence of 50 mM HEPES, pH 7.5, 10 mM MgCl2 150 mM NaCl and 10 μM-1 mM ATP. The biotinylated substrate biotin-EGPWLEEEEEAYGWMDF-NH2 (final concentration 5 μM) was used as substrate. In the ELISA assay tyrosine phosphorylation was quantitated following transfer to an avidin coated ELISA plate using peroxidase-linked anti-phospho-tyrosine antibody PY20. In the Alphascreen assay, Alphascreen phosphotyrosine acceptor beads followed by streptavidin donor beads were added under subdued light. The ELISA plates were read on a BMG Fluorostar, the Alphascreen plates were read on a Packard Fusion Alpha. Inhibitors were added to the assays fifteen minutes prior to the addition of ATP. Inhibitors were added in aqueous DMSO, with DMSO concentrations never exceeding 1%.

hck = hck (Homo sapiens, UniProt P08631); assay: Kinase assay (ELISA or Alphascreen), hck; conditions: standard conditions, read-out: hck inhibition of enzyme activity
Method: as §2

human JAK2 = molecular target: T2, human JAK2 (Homo sapiens, UniProt O60674); assay: JAK kinase assay (ELISA or Alphascreen), Jak2; conditions: standard conditions, read-out: Jak2 inhibition of enzyme activity
T2 construct: The kinase domain of human JAK2 was amplified from U937mRNA; His tag (pFastBac HTc vector; nickel chelate purification) (N); made in house; host or cells: baculovirus; Sf9 for virus, High Five insect cells for production
Source text: The kinase domain of human JAK2 was amplified from U937mRNA using the polymerase chain reaction with the following primers: […]
JAK2 PCR products were cloned into the pFastBac HTc expression vector (Gibco) via the Sal I and Not I sites. The JAK2 plasmid was then transformed into competent DHL10Bac cells (Gibco), and the recombinant baculovirus produced prepared for transfection into Sf9 insect cells.
as §1, §2

abl = molecular target: T3, abl (Homo sapiens, UniProt P00519); assay: Kinase assay (ELISA or Alphascreen), abl; conditions: standard conditions, read-out: abl inhibition of enzyme activity
T3 sequence (P00519 242-493 limits assumed): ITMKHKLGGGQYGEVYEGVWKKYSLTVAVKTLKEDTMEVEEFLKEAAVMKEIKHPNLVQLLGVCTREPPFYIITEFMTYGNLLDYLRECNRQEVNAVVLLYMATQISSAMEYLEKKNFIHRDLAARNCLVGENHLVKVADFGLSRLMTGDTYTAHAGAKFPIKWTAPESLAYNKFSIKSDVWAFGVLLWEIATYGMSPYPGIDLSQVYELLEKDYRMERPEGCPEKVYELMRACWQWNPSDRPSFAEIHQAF
Method: as §2

fms = molecular target: T4, fms (Homo sapiens, UniProt P07333); assay: Kinase assay (ELISA or Alphascreen), fms; conditions: standard conditions, read-out: fms inhibition of enzyme activity
T4 sequence (P07333 582-910 limits assumed): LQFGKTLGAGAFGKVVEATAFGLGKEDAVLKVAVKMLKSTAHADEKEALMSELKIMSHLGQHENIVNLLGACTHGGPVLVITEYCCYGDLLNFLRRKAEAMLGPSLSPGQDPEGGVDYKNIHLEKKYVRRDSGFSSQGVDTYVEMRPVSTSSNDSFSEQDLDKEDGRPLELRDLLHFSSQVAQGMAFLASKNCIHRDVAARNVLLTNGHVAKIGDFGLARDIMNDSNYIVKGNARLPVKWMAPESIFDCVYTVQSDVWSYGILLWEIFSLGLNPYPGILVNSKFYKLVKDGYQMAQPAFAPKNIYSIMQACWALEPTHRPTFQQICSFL
Method: as §2

tie2 = tie2 (Homo sapiens, UniProt Q02763); assay: Kinase assay (ELISA or Alphascreen), tie2; conditions: standard conditions, read-out: tie2 inhibition of enzyme activity
Method: as §2

zap70 = molecular target: T5, zap70 (Homo sapiens, UniProt P43403); assay: Kinase assay (ELISA or Alphascreen), zap70; conditions: standard conditions, read-out: zap70 inhibition of enzyme activity
T5 sequence (P43403 338-600 limits assumed): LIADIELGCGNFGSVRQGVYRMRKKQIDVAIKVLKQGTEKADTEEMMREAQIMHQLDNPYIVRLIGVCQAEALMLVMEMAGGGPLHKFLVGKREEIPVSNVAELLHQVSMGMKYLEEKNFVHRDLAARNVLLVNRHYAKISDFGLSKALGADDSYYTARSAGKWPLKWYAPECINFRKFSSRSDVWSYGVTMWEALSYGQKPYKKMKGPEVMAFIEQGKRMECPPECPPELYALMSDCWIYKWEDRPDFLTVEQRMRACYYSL
Method: as §2

kdr = kdr (Homo sapiens, UniProt P35968); assay: Kinase assay (ELISA or Alphascreen), kdr; conditions: standard conditions, read-out: kdr inhibition of enzyme activity
Method: as §2

Chain of hck (P08631 262-515 limits assumed, species assumed): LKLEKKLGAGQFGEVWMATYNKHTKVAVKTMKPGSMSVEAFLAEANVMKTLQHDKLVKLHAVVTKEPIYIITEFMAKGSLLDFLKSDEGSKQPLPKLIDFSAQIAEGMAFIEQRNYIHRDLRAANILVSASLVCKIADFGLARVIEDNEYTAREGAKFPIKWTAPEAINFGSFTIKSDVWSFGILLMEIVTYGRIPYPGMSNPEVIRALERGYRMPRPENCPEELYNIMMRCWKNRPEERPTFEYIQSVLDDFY
T2 sequence (O60674 849-1124 limits assumed): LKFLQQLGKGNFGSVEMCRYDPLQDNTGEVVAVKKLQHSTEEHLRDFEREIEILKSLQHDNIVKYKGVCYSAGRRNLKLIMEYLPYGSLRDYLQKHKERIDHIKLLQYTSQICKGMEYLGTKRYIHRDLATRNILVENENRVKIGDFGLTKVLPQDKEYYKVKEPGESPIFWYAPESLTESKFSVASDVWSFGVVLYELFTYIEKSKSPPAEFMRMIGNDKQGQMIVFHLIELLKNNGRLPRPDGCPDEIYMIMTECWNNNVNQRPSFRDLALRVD
Chain of tie2 (Q02763 824-1096 limits assumed, species assumed): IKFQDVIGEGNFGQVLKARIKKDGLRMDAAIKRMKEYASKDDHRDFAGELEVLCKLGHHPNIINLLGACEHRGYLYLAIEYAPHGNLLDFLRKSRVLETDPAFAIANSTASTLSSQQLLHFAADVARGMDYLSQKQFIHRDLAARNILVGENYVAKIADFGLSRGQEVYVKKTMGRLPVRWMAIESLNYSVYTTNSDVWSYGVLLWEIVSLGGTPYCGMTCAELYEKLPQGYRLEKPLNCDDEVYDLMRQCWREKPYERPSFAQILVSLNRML
T1 sequence (P52333 822-1111 limits assumed): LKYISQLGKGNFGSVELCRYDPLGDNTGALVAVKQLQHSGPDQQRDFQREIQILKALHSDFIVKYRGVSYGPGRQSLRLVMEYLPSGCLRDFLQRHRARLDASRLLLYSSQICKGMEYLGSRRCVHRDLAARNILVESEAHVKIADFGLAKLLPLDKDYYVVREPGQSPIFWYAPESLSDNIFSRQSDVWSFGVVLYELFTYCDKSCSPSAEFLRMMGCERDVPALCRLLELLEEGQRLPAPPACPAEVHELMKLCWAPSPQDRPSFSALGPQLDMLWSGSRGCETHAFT
Chain of kdr (P35968 834-1162 limits assumed, species assumed): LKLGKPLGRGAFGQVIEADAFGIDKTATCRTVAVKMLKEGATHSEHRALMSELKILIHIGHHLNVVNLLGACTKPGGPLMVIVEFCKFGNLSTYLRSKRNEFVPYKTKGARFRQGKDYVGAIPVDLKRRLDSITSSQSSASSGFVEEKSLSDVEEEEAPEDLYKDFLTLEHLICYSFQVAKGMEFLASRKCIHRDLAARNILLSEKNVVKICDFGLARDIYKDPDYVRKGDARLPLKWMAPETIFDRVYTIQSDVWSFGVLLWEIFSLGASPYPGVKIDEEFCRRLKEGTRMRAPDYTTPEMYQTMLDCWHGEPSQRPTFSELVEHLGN

SMILES | inhibition at 20 µM (human JAK3) | inhibition at 20 µM (hck) | inhibition at 20 µM (human JAK2) | inhibition at 20 µM (abl) | inhibition at 20 µM (fms) | inhibition at 20 µM (tie2) | inhibition at 20 µM (zap70) | inhibition at 20 µM (kdr)
COc1ccc2c(c1)CCC2Nc1cncc(-n2cnc3ccc(C#N)cc32)n1 (stereo not drawn) | < 50% | ≥ 50% | < 50% |  |  |  |  | 
COc1cc(-c2cncc(-n3cnc4ccccc43)n2)ccc1O | < 50% |  | < 50% | ≥ 50% |  |  |  | 
N#Cc1ccc2c(c1)ncn2-c1cncc(N[C@H]2CCCc3ccccc32)n1 | ≥ 50% |  | ≥ 50% |  | ≥ 50% |  |  | 
Cc1ncc(-n2cnc3ccc(C#N)cc32)nc1N[C@@H](C)c1cccc(F)c1 | ≥ 50% |  | ≥ 50% |  |  | ≥ 50% |  | 
CC(Nc1cncc(-n2cnc3cc(C#N)ccc32)n1)c1ccccc1F (stereo not drawn) | ≥ 50% |  | ≥ 50% |  | ≥ 50% |  |  | 
C[C@H](Nc1cncc(-n2cnc3cc(-c4nn[nH]n4)ccc32)n1)c1ccc(F)cc1 | < 50% |  | < 50% |  |  |  | ≥ 50% | 
CC(Nc1cncc(-n2cnc3cc(C#N)ccc32)n1)c1cccc2ccccc12 (stereo not drawn) | < 50% |  | < 50% |  | ≥ 50% |  |  | 
CC[C@H](Nc1cncc(-n2cnc3ccccc32)n1)c1ccccc1 | < 50% |  | ≥ 50% | ≥ 50% |  |  | ≥ 50% | 
N#Cc1ccc2c(c1)ncn2-c1cncc(NC2CCc3cc(F)ccc32)n1 (stereo not drawn) | ≥ 50% |  | ≥ 50% |  |  | ≥ 50% |  | 
C[C@H](Nc1cncc(-n2cnc3ccc(CN4CCOCC4)cc32)n1)c1ccc(F)cc1 | < 50% | ≥ 50% | ≥ 50% |  |  |  |  | 
N#Cc1ccc2ncn(-c3cncc(N[C@H]4CCc5ccccc54)n3)c2c1 | ≥ 50% |  | ≥ 50% |  |  | ≥ 50% |  | 
C[C@H](Nc1cncc(-n2cnc3ccccc32)n1)c1ccc(F)cc1 | ≥ 50% |  | ≥ 50% |  |  |  | ≥ 50% | 
C[C@H](Nc1cncc(-n2cnc3cc(C(=O)NCCCCN4CCOCC4)ccc32)n1)c1ccccc1 | < 50% |  | ≥ 50% | ≥ 50% |  |  | ≥ 50% | 
CC(Nc1cncc(-n2cnc3cc(C#N)ccc32)n1)c1ccc(F)c(Cl)c1 (stereo not drawn) | < 50% | ≥ 50% | ≥ 50% |  |  |  |  | 
N#Cc1ccc2c(c1)ncn2-c1cncc(N[C@H]2CCc3ccccc32)n1 | ≥ 50% |  | ≥ 50% |  |  | ≥ 50% |  | ≥ 50%
CNCCN(C)Cc1ccc2ncn(-c3cncc(NC(C)c4ccc(F)cc4)n3)c2c1 (stereo not drawn) | < 50% |  | < 50% |  |  |  |  | ≥ 50%
CC(Nc1cncc(-n2cnc3ccc(C#N)cc32)n1)c1cccc(F)c1 (stereo not drawn) | ≥ 50% | ≥ 50% | ≥ 50% |  |  |  |  | 
